ChEMBL document CHEMBL1158778, “Paecilosetin, a new bioactive fungal metabolite from a New Zealand isolate of Paecilomyces farinosus” (J Nat Prod, 2005)
Converted amounts (≈) assume the structure as drawn.

Columns and labels:
P388 = assay: Cytotoxicity against mouse P388 cells by MTT assay; assay type: functional, cell-based
[1] = test system: Trichophyton mentagrophytes; assay: Antimicrobial activity against Trichophyton mentagrophytes at 40 ug/disk by agar diffusion assay; assay type: functional; details: read-out: IZ
Bacillus subtilis = assay: Antimicrobial activity against Bacillus subtilis at 5 ug/disk by agar diffusion assay; assay type: functional; details: read-out: IZ
Amorphotheca resinae = assay: Antimicrobial activity against Cladosporium resinae at 40 ug/disk by agar diffusion assay; assay type: functional; details: read-out: IZ

SMILES | IC50 (P388) [µg/mL] | zone of inhibition at 40 µg/disc [1] [mm] | zone of inhibition at 5 µg/disc (Bacillus subtilis) [mm] | zone of inhibition at 40 µg/disc (Amorphotheca resinae) [mm]
CCC(C)/C=C(C)/C=C/C=C/C=C/C(=O)c1c(O)c(-c2ccc(O)cc2)cn(O)c1=O (stereo not given) [FARINOSONE B] | 1.1 (≈ 2.61 µM) |  |  | 
C/C=C/[C@@H]1C=C[C@@H]2C[C@H](C)CC[C@H]2[C@]1(C)/C(O)=C1\C(=O)N[C@@H](C(C)O)C1=O (stereo not given in full) [PAECILOSETIN] | 3.2 (≈ 8.57 µM) | 3 | 3 | 1
